Assay results taken from patent publication US20040067531A1, “Methods of modulating protein tyrosine kinase function with substituted indolinone compounds” (SUGEN, INC., priority 1997, published 2004).
Like-named read-outs stand apart in the source and are kept apart here.

Test system: HUV-EC-C cells; VEGF
Assay: HUVEC-VEGF 3H-thymidine incorporation assay
Type: cell-based, human
Protocol: The following protocol is used to measure a compound's activity against VEGF and aFGF, all of which are expressed by HUVEC cells.
1. […] After cells have detached from the flask, add an equal volume of assay medium and transfer to a 50 mL sterile centrifuge tube (Fisher Scientific; catalogue no. 05-539-6).
2. Wash the cells with about 35 mL assay medium in the 50 mL sterile centrifuge tube by adding the assay medium, centrifuge for 10 minutes at approximately 200×g, aspirate the supernatant, and resuspend with 35 mL D-PBS. Repeat the wash two more times with D-PBS, resuspend the cells in about 1 mL assay medium/15 cm^2 of tissue culture flask. Assay medium consists of F12K medium (Gibco BRL; catalogue no. 21127-014)+0.5% heat-inactivated fetal bovine serum. Count the cells with a Coulter Counter® (Coulter Electronics, Inc.) and add assay medium to the cells to obtain a concentration of 0.8-1.0×10^5 cells/mL.
3. Add cells to 96-well flat-bottom plates at 100 μL/well or 0.8-1.0×10^4 cells/well; incubate ˜24h at 37° C., 5% CO^2.
1. Make up two-fold drug titrations in separate 96-well plates, generally 50 μM on down to 0 μM. Use the same assay medium as mentioned in day 0, step 2 above. Titrations are made by adding […] of drug at 200 μM (4× the final well concentration) to the top well of a particular plate column. Since the stock drug concentration is usually 20 mM in DMSO, the 200 μM drug concentration contains 2% DMSO.
Therefore, diluent made up to 2% DMSO in assay medium (F12K+0.5% fetal bovine serum) is used as diluent for the drug titrations in order to dilute the drug but keep the DMSO concentration constant. Add this diluent to the remaining wells in the column at 60 μL/well. Take 60 μL from the 120 μL of 200 μM drug dilution in the top well of the column and mix with the 60 μL in the second well of the column. Take 60 μL from this well and mix with the 60 μL in the third well of the column, and so on until two-fold titrations are completed. When the next-to-the-last well is mixed, take 60 μL of the 120 μL in this well and discard it. Leave the last well with 60 μL of DMSO/media diluent as a non-drug-containing control. Make 9 columns of titrated drug, enough for triplicate wells each for 1) VEGF (obtained from Pepro Tech Inc., catalogue no. 100-200, 2) endothelial cell growth factor (ECGF) (also known as acidic fibroblast growth factor, or aFGF) (obtained from Boehringer Mannheim Biochemica, catalogue no. 1439 600); or, 3) human PDGF B/B (1276-956, Boehringer Mannheim, Germany) and assay media control. ECGF comes as a preparation with sodium heparin.
2. Transfer 50 μL/well of the drug dilutions to the 96-well assay plates containing the 0.8-1.0×10^4 cells/100 μL/well of the HUV-EC-C cells from day 0. and incubate ˜2 h at 37° C., 5% CO2.
3. […] As with the drugs, the growth factor concentrations are 4× the desired final concentration. Use the assay media from day 0 step 2 to make the concentrations of growth factors. Incubate approximately 24 hours at 37° C., 5% CO2. Each well will have 50 μL drug dilution, 50 μL growth factor or media, and 100 μL cells, =200 μL/well total. Thus the 4× concentrations of drugs and growth factors become 1× once everything has been added to the wells.
1. Add ^3H-thymidine (Amersham; catalogue no. TRK-686) at 1 μCi/well (10 μL/well Of 100 μCi/mi solution made up in RPMI media +10% heat-inactivated fetal bovine serum) and incubate μ24 h at 37° C., 5% CO2. RPMI was obtained from Gibco BRL, catalogue no. 11875-051.
1. Freeze plates overnight at […]
1. Thaw plates and harvest with a 96-well plate harvester (Tomtec Harvester 96®) onto filter mats (Wallac; catalogue no. 1205-401); read counts on a Wallac Betaplate™ liquid scintillation counter.
The IC50 values were measured for several of the compounds of the invention.

Row | Compound | IC50 (Homo sapiens) [nM] | IC50 [nM]
1 | O=C(O)CCc1c(C=C2C(=O)Nc3ccccc32)[nH]c2c1CCCC2 [IN-001, 3-[2-(2-Oxo-1,2-dihydro-indol-3-ylidenemethyl)-4,5,6,7-tetrahydro-1H-indol-3-yl]-propionic acid] | 1.9 | –
2 | O=C(O)CCc1c(C=C2C(=O)Nc3ccc(Cl)cc32)[nH]c2c1CCCC2 [IN-002, 3-[2-(5-Chloro-2-oxo-1,2-dihydro-indol-3-ylidenemethyl)-4,5.6,7-tetrahydro-1H-indol-3-yl]-propionic acid] | – | 0.04
3 | O=C(O)CCc1c(C=C2C(=O)Nc3ccc(Br)cc32)[nH]c2c1CCCC2 [IN-003, 3-[2-(5-Bromo-2-oxo-1,2-dihydro-indol-3-ylidenemethyl)-4,5,6,7-tetrahydro-1H-indol-3-yl]-propionic acid] | 0.3 | –
4 | Cc1cccc2c1C(=Cc1[nH]c3c(c1CCC(=O)O)CCCC3)C(=O)N2 [IN-004, 3-[2-(4-Methyl-2-oxo-1,2-dihydro-indol-3-ylidenemethyl)-4,5,6,7-tetrahydro-1H-indol-3-yl]-propionic acid] | 0.94 | –
5 | Cc1ccc2c(c1)C(=Cc1[nH]c3c(c1CCC(=O)O)CCCC3)C(=O)N2 [IN-005, 3-[2-(5-Methyl-2-oxo-1,2-dihydro-indol-3-ylidenemethyl)-4,5,6,7-tetrahydro-1H-indol-3-yl]-propionic acid] | 1 | –
6 | COc1ccc2c(c1)NC(=O)C2=Cc1[nH]c2c(c1CCC(=O)O)CCCC2 [IN-007, 3-[2-(6-Methoxy-2-oxo-1,2-dihydro-indol-3-ylidenemethyl)-4,5,6,7-tetrahydro-1H-indol-3-yl]-propionic acid] | 20 | –
7 | CN(C)C(=O)CCc1c(C=C2C(=O)Nc3ccccc32)[nH]c2c1CCCC2 [IN-008, N,N-Dimethyl-3-[2-(2-oxo-1,2-dihydro-indol-3-ylidenemethyl)-4,5,6,7-tetrahydro-1H-indol-3-yl]-propionamide] | < 3 | –
8 | CN(C)CCCc1c(C=C2C(=O)Nc3ccccc32)[nH]c2c1CCCC2 [IN-009, 3-[3-(3-Dimethylamino-propyl)-4,5,6,7-tetrahydro-1H-indol-2-ylmethylene]-1,3-dihydro-indol-2-one] | 290 | –
9 | NC(=O)CCc1c(C=C2C(=O)Nc3ccccc32)[nH]c2c1CCCC2 [IN-010, 3-[2-(2-Oxo-1,2-dihydro-indol-3-ylidenemethyl)-4,5,6,7-tetrahydro-1H-indol-3-yl]-propionamide] | < 30 | –
10 | O=C1Nc2ccccc2C1=Cc1[nH]c2c(c1CCC(=O)N1CCOCC1)CCCC2 [IN-011, 3-[3-(3-Morpholin-4-yl-3-oxo-propyl)-4,5 6,7-tetrahydro-1H-indol-2-ylmethylene]-1,3-dihydro-indol-2-one] | 220 | –
11 | CNC(=O)CCc1c(C=C2C(=O)Nc3ccccc32)[nH]c2c1CCCC2 [IN-012, N-Methyl-3-[2-(2-oxo-1,2-dihydro-indol-3-ylidenemethyl)-4,5,6,7-tetrahydro-1H-indol-3-yl]-propionamide] | < 30 | –
12 | O=C(CCc1c(C=C2C(=O)Nc3ccccc32)[nH]c2c1CCCC2)NCCN1CCOCC1 [IN-013, N-(2-Morpholin-4-yl-ethyl)-3-[2-(2-oxo-1,2-dihydro-indol-3-ylidenemethyl)-4,5,6,7-tetrahydro-1H-indol-3-yl]-propionamide] | < 30 | –
13 | Cc1c[nH]c(C=C2C(=O)Nc3ccc(Cl)cc32)c1CCC(=O)O [IN-027, 3-[2-(5-Chloro-2-oxo-1,2-dihydro-indol-3-ylidenemethyl)-4-methyl-1H-pyrrol-3-yl]-propionic acid] | < 70 | –
14 | COc1ccc2c(c1)NC(=O)C2=Cc1[nH]cc(C)c1CCC(=O)O [IN-028, 3-[2-(6-Methoxy-2-oxo-1,2-dihydro-indol-3-ylidenemethyl)-4-methyl-1H-pyrrol-3-yl]-propionic acid] | 620 | –
15 | Cc1c[nH]c(C=C2C(=O)Nc3cccc(C)c32)c1CCC(=O)O [IN-029, 3-[2-(4-Methyl-2-oxo-1,2-dihydro-indol-3-ylidenemethyl)-4-methyl-1H-pyrrol-3-yl]-propionic acid] | < 70 | –
16 | Cc1c[nH]c(C=C2C(=O)Nc3cc(Cl)ccc32)c1CCC(=O)O [IN-030, 3-[2-(6-Chloro-2-oxo-1,2-dihydro-indol-3-ylidenemethyl)-4-methyl-1H-pyrrol-3-yl]-propionic acid] | 16 | –
17 | Cc1c[nH]c(C=C2C(=O)Nc3ccc(Br)cc32)c1CCC(=O)O [IN-031, 3-[2-(5-Bromo-2-oxo-1,2-dihydro-indol-3-ylidenemethyl)-4-methyl-1H-pyrrol-3-yl]-propionic acid] | 40 | –
